Drawing on ChEMBL document CHEMBL6134829, “Targeting cysteine protease B to discover antileishmanial drugs: Directions and advances” (Eur J Med Chem, 2025), this text covers Ki, IC50 and Activity for 37 molecules.

In general, Ki refers to the dissociation constant of the complex between target and ligand, obtained from inhibition or displacement. What is called IC50 is the concentration needed to halve the response being measured.

Converted amounts (≈) assume the structure as drawn. *1 amine or outer side, *2 acyl side, *3 side chain or, on linkers, in order; H or OH if unused. Where a SMILES comes first, the peptide text is derived from it. [ ]: non-standard residue; d: D form. X1 = O=C1CC2C(=O)N(CCN[*:1])C(=O)C2C(c2ccc(C(=O)[*:2])cc2)C1; X2 = O=C1CC2C(=O)N(CCN[*:1])C(=O)C2C(C(=O)[*:2])C1; Cha = N[C@@H](CC1CCCCC1)C(=O)O

Experiment [1] in a line: Binding affinity to Leishmania mexicana CPB2.8 assessed as inhibition constant.
A short description of experiment [2]: Inhibition of Leishmania mexicana CPB2.8.
Another experiment concerns Leishmania donovani. Description: Antileishmanial activity against Leishmania donovani MHOM/IN/1983/AG83 axenic amastigotes assessed as inhibition of growth at 10 uM relative to control. It counts as functional. Also noted: scale not given: the % may be the effect or the level left.
Experiment [3] in a line: Inhibition of Leishmania donovani cysteine protease.
The next experiment deals with Leishmania major. Description: Antileishmanial activity against Leishmania major promastigotes MHOM/IL/81/FE/BN. It counts as functional, organism-based.
In a further experiment the test system is Leishmania amazonensis. The experiment in a line: Antileishmanial activity against Leishmania amazonensis promastigotes assessed as inhibition of parasite growth. It counts as functional, organism-based.
A further experiment relates to Leishmania infantum. Description: Antileishmanial activity against Leishmania infantum promastigote assessed as reduction in parasite growth after 72 hrs by MTT assay relative to control. It counts as functional. Also noted: scale not given: the % may be the effect or the level left. For orientation: Formazan colour is commonly taken as a measure of viable cells.

On to `O=c1c(O)c(-c2ccc3c(c2)OCO3)oc2ccccc12`, for which, in experiment [1], the Ki worked out at 7060 nM. Also, in experiment [2], the IC50 is 5230 nM.

On to `CN(C)c1ccc(/C=C/C(=O)c2cc(Cl)ccc2O)cc1`, for which, in experiment [1], the inhibition constant (Ki) came out at 5470 nM. In addition, in experiment [2], the half-maximal inhibitory concentration (IC50) was 3970 nM.

In the case of `O=C1NC(=O)/C(=C/c2ccc([N+](=O)[O-])cc2)S1`, the midpoint of inhibition in experiment [2], the IC50, lay at 980 nM. The Activity with Leishmania donovani came to 93.98%.

`CCOc1cc(/C=C2\SC(=O)NC2=O)ccc1O` came in with an IC50 in experiment [2] of 1420 nM. The Activity in the experiment on Leishmania donovani is on record as 100%.

As for `Oc1cccc(/C=N\c2cccc3c(/N=C/c4cccc(O)c4O)cccc23)c1O`, the IC50 in experiment [3] is 113000 nM.

`O=C(O)c1ccccc1N/N=C/c1ccc(/C=N/Nc2ccccc2C(=O)O)cc1` registered a 50% inhibitory concentration (IC50) in experiment [3] of 72000 nM.

In the case of `COC(=O)c1ccc(NC(=O)CSc2nc3ccc(Cl)cc3n2Cc2cc(C)cc(C)c2)c(Cl)c1`, the Ki in experiment [1] turned out to be 690 nM. In addition, the midpoint of inhibition in experiment [2], the IC50, lay at 2060 nM.

With `COC(=O)c1ccc(NC(=O)CSc2nc3ccc(Cl)cc3n2S(=O)(=O)c2cc(C)cc(C)c2)c(Cl)c1`, the Ki in experiment [1] is 150 nM. The same molecule registered an IC50 in experiment [2] of 450 nM.

`O=C(N[C@H](/C=C/S(=O)(=O)c1ccccc1)CCc1ccccc1)[C@H](Cc1ccccc1)NC(=O)N1CCOCC1` registered an IC50 in experiment [2] of 27 nM.

In the experiment on Leishmania major, `CC(C)C[C@@H](NC(=O)OC(C)(C)C)C(=O)N1CCC[C@@H]1C(=O)N1[C@H](C(=O)OCc2ccccc2)[C@H]1C(=O)OCc1ccccc1` had a half-inhibitory concentration (IC50) of 35400 nM.

Turning to `CC(C)C[C@H](NC(=O)OC(C)(C)C)C(=O)N1CCC[C@@H]1C(=O)N1[C@H](C(=O)OCc2ccccc2)[C@H]1C(=O)OCc1ccccc1`, it took 39600 nM to reach half-maximal inhibition in the experiment on Leishmania major (IC50).

Regarding `COc1ccc(-c2oc3ccccc3c(=O)c2O)cc1`, the Ki in experiment [1] was determined as 7710 nM. In addition, the IC50 in experiment [2] was 4720 nM.

Regarding `COC(=O)c1ccc(NC(=O)CSc2nc3ccccc3n2S(=O)(=O)c2cc(C)cc(C)c2)cc1`, the Ki in experiment [1] is 180 nM. The molecule also registered an IC50 in experiment [2] of 540 nM.

Turning to `O=C(CN1C(=O)/C(=N\NC(=O)c2ccncc2)c2ccccc21)Nc1ccccc1`, in experiment [3], the IC50 was 62600 nM.

In experiment [2], `CC(C)C[C@H](NC(=O)OC(C)(C)C)C(=O)N1CCC[C@@H]1C(=O)N1[C@@H](C(=O)OCc2ccccc2)[C@@H]1C(=O)OCc1ccccc1` had an IC50 of 3800 nM.

On to `O=C1c2c(O)cc(O)cc2O[C@@H](c2ccc(O)cc2)[C@@H]1c1c(O)cc(O)c2c(=O)cc(-c3ccc(O)c(O)c3)oc12`, for which the IC50 worked out at 5200 nM in experiment [2] and 95 µg/mL (≈ 171 µM) in the experiment with Leishmania amazonensis.

As to `CC(C)(C)OC(=O)N[C@@H](Cc1cccc(Cl)c1)C(=O)NCC#N`, in the experiment with Leishmania infantum, the Activity was determined as 35%.

`O=C1CC(c2ccc(O)c(-c3c(O)cc4c(c3O)C(=O)CC(c3ccc(O)cc3)O4)c2)Oc2cc(O)cc(O)c21` (stereo unspecified) yielded an IC50 in experiment [2] of 2200 nM.

Consider `Cc1cc(C)cc(S(=O)(=O)n2c(SCC(=O)Nc3ccccc3)nc3ccccc32)c1`, for which, in experiment [1], the Ki worked out at 230 nM. The IC50 in experiment [2] came out at 680 nM.

In experiment [3], `Oc1cc(O)cc(/C=N/c2ccc(/N=C/c3ccc(O)cc3O)c(Cl)c2)c1` gave an IC50 of 65300 nM.

As for `C[C@@H]1CCC2(C(=O)O)CC[C@]3(C)C(=CCC4[C@@]5(C)CCC(=O)C(C)(C)C5CC[C@]43C)C2[C@H]1C` (stereo partly specified), the Ki in experiment [1] was 1260 nM. The IC50 in experiment [2] was 3780 nM.

For `O=C(N[C@@H](Cc1ccccc1)C(=O)c1noc(-c2ccccc2)n1)[C@H](Cc1ccccc1)NC(=O)N1CCOCC1`, the IC50 in experiment [2] stood at 50 nM.

For the molecule `CN1CCN(C(=O)N[C@@H](Cc2ccccc2)C(=O)N[C@@H](CCc2ccccc2)C(=O)c2cc(-c3ccccc3)on2)CC1`, half-maximal inhibition in experiment [2] (IC50) required 230 nM.

Consider `NC(=O)N/N=c1\oc2ccccc2cc1-c1nc2ccccc2[nH]1`, for which inhibition in experiment [2] was half-maximal at 10 nM (IC50).

`NC(=S)N/N=C/c1c(-c2ccccc2)[nH]c2ccccc12`: in experiment [2], half-maximal inhibition (IC50) was put at 60 nM.

Molecule `O=C(N[C@@H](Cc1ccccc1)C(=O)c1cc(-c2ccccc2)on1)[C@H](Cc1ccccc1)NC(=O)N1CCOCC1` had an IC50 in experiment [2] of 100 nM.

`COc1ccc(-c2ccc(/C=N/NC(N)=S)o2)cc1` yielded an IC50 in experiment [2] of 70 nM.

In experiment [2], `O=C1CC(c2ccc(O)cc2)Oc2cc(O)c(-c3c(O)cc(O)c4c(=O)cc(-c5ccc(O)cc5)oc34)c(O)c21` (stereo unspecified) gave an IC50 of 430 nM.

With `CC(C)=CCOc1ccc(C(=O)c2ccc(O)cc2)c(O)c1`, the Ki in experiment [1] turned out to be 4300 nM. Besides, the IC50 in experiment [2] is 2900 nM.

As to `Cc1ccc(C(=O)[C@@]23C(=O)OC(=O)[C@]2(C)N(C)[C@]2(c4ccccc4)Sc4ccccc4[C@H]32)cc1`, the Ki in experiment [1] amounted to 1360 nM. Moreover, the 50% inhibitory concentration (IC50) in experiment [2] came to 3700 nM.

On to `COc1ncccc1Nc1nc(C#N)nc(NC2CCCCC2)n1`, for which the IC50 in experiment [2] is 1100 nM.

As to `COc1ccc2nc3cc(Cl)ccc3c(-n3c(=S)[nH][nH]c3=S)c2c1`, the half-maximal inhibitory concentration (IC50) came out at 1140 nM in experiment [2] and 6.57 µg/mL (≈ 17.5 µM) in the experiment with Leishmania amazonensis.

Regarding `O=C(N[C@@H](CCc1ccccc1)C(=O)c1cc(-c2ccccc2)on1)[C@H](Cc1ccccc1)NC(=O)N1CCOCC1`, the IC50 in experiment [2] was determined as 190 nM.

In experiment [2], `CC(C)[C@H](NC(=O)c1ccc(C2CC(=O)CC3C(=O)N(CCNC(=O)[C@H](CC(=O)O)NC(=O)[C@@H](N)Cc4c[nH]c5ccccc45)C(=O)C32)cc1)C(=O)N[C@@H](CO)C(=O)N[C@@H](CCCCN)C(N)=O` (stereo partly specified) (H-WD[X1]VSK-NH2) registered an IC50 of 1700 nM.

As for `CC(C)C[C@H](NC(=O)C1CC(=O)CC2C(=O)N(CCNC(=O)[C@H](Cc3ccccc3)NC(=O)[C@@H](N)Cc3c[nH]c4ccccc34)C(=O)C12)C(=O)N[C@@H](Cc1ccc(O)cc1)C(=O)N[C@@H](Cc1ccc(O)cc1)C(N)=O` (stereo partly specified) (H-WF[X2]LYY-NH2), in experiment [2], it took 500 nM to reach half-maximal inhibition (IC50).

`CC(C)[C@H](NC(=O)c1ccc(C2CC(=O)CC3C(=O)N(CCNC(=O)[C@H](Cc4c[nH]c5ccccc45)NC(=O)[C@@H](N)CC4CCCCC4)C(=O)C32)cc1)C(=O)N[C@H](C(=O)N[C@@H](Cc1ccccc1)C(N)=O)C(C)C` (stereo partly specified) (H-[Cha]W[X1]VVF-NH2): the IC50 in experiment [2] turned out to be 450 nM.

For `CC(C)(F)C[C@H](N[C@@H](c1ccc(-c2ccc(S(C)(=O)=O)cc2)cc1)C(F)(F)F)C(=O)NC1(C#N)CC1` [ODANACATIB], the Activity in the experiment on Leishmania infantum is 90%.
